Measured values taken from PMC10762035, “Molecular basis of human trace amine-associated receptor 1 activation” (Nature Communications, 2024).
Substitutions are numbered along the chain they refer to. Several values for one entry are separate records, joined by “and”; a condition that tells them apart may be missing. Equal entries are not always repeated. Where two headings read alike, the source gives them in different places.

How the values were obtained:
Type in all cases: cell-based
hTA1 S107C = target: T1, hTA1 S107C (Homo sapiens, UniProt Q96RJ0, S107C); assay: GloSensor cAMP accumulation assay, S107C mutant;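 note: cells transiently co-expressing receptor and GloSensor biosensor, luminescence read after 30 min agonist exposure at room temperature, concentration-response fitted by nonlinear regression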
T1 construct: expressed in transfected cells; host or cells: HEK293T
T1 sequence (Q96RJ0 1-339 S107C): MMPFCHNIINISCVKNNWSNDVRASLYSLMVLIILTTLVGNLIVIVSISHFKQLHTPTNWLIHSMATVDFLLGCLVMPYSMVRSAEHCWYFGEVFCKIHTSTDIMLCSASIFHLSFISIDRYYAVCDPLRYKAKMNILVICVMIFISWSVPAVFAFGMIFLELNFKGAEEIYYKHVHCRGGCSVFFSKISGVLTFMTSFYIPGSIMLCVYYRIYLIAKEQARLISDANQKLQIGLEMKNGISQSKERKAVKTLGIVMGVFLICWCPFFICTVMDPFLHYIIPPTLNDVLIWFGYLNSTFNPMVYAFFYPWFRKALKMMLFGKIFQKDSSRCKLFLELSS

hTA1 C13S = target: T2, hTA1 C13S (Homo sapiens, UniProt Q96RJ0, C13S); assay: GloSensor cAMP accumulation assay, C13S mutant; settings: for C13S - Normalized Luminescence Counts (N=2): log[Compound], single wells
T2 construct: expressed in transfected cells; host or cells: HEK293T
T2 sequence (Q96RJ0 1-339 C13S): T1 sequence (Q96RJ0 1-339 S107C) with C13S, C107S

hTA1 T271N = target: T3, hTA1 T271N (Homo sapiens, UniProt Q96RJ0, T271N); assay: GloSensor cAMP accumulation assay, T271N mutant
T3 construct: expressed in transfected cells; host or cells: HEK293T
T3 sequence (Q96RJ0 1-339 T271N): T1 sequence (Q96RJ0 1-339 S107C) with C107S, T271N

hTA1 b2N = target: T4, hTA1 b2N (Homo sapiens, UniProt Q96RJ0); assay: GloSensor cAMP accumulation assay, b2N construct; settings: b2N, n=2
T4 construct: read by me as the first 25 residues of β2AR (N); expressed in transfected cells; host or cells: HEK293T

hTA1 = target: T5, hTA1 (Homo sapiens, UniProt Q96RJ0); assay: GloSensor cAMP accumulation assay, concentration response, wild-type hTA1 in transfected HEK293T cells; settings: for Emax: HEK-293T; for Dose-response curves for asenapine vs endogenous trace amines: log[Compound], replicate values (N=2);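 for all read-outs here: luminescence read after 30 min compound exposure at room temperature in cells preloaded with D-Luciferin, reflecting Gs-driven cAMP rise, efficacy scaled to the maximal β-PEA response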
T5 construct: expressed in transfected cells; host or cells: HEK293T
T5 sequence (Q96RJ0 1-339): T1 sequence (Q96RJ0 1-339 S107C) with C107S

hTA1 I290Y = target: T6, hTA1 I290Y (Homo sapiens, UniProt Q96RJ0, I290Y); assay: GloSensor cAMP accumulation assay, I290Y mutant; settings: for cAMP accumulation response, normalized (concentration-response source data, single replicate values): hTA1 I290Y (N=3), log[Compound];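 for cAMP accumulation response, normalized (concentration-response source data, single replicate values): normalized to the maximum response of β-PEA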
T6 construct: expressed in transfected cells; host or cells: HEK293T
T6 sequence (Q96RJ0 1-339 I290Y): T1 sequence (Q96RJ0 1-339 S107C) with C107S, I290Y

T4 sequence (Q96RJ0 with tags, fused parts or gaps): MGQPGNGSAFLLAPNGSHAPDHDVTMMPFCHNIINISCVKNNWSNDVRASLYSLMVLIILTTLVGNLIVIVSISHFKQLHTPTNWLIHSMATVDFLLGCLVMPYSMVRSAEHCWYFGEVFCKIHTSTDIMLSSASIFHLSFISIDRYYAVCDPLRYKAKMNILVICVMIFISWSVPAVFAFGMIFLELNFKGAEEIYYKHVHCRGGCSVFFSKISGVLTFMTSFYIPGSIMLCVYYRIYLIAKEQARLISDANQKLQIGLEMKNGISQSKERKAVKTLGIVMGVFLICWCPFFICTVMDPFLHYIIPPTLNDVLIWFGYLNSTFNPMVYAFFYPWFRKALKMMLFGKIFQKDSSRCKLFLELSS

NCCc1ccc(O)cc1 [TYR, tyramine]
ΔEmax values (each mutant value - WT average) (hTA1 S107C; S107C mutant minus WT average): 8.654 | Emax values, Mean (hTA1 S107C; S107C mutant, β-PEA = 100, each line an independent experiment, 3 replicates): 107.638 and 133.074 | EC50 (hTA1 S107C; S107C, n=2, read-out: EC50): 186 nM | Emax (hTA1 S107C; S107C, n=2, read-out: Span ± SEM (Emax normalized to β-PEA)): 120% | ΔpEC50 values (each mutant value - WT average) (hTA1 C13S; C13S): -0.3688 and -0.3329 | Emax values (hTA1 C13S; C13S, Mean of fit per experiment): 110.911 | Emax (hTA1 C13S; C13S, Mean of fit per experiment, read-out: Emax values): 93.7% | EC50 (hTA1 C13S; C13S, n=2, read-out: EC50): 931 nM | Emax (hTA1 C13S; C13S, n=2, read-out: Span ± SEM (Emax normalized to β-PEA)): 102 ± 8.61% | EC50 (hTA1 C13S; hTA1 C13S, mean of 3 replicates, one line per independent experiment, read-out: pEC50 values, Mean (converted)): 970 nM and 893 nM | C13S - Normalized Luminescence Counts (N=2) (hTA1 C13S; M = -5): 78.8304 and 97.2912 and 83.436 and 97.1609 and 112.12 and 105.729 | C13S - Normalized Luminescence Counts (N=2) (hTA1 C13S; M = -5.522): 59.6843 and 75.6711 and 68.2867 and 72.4375 and 86.5575 and 83.5764 | C13S - Normalized Luminescence Counts (N=2) (hTA1 C13S; M = -6): 42.8222 and 56.3728 and 40.1958 and 58.5139 and 61.7985 and 54.8367 | C13S - Normalized Luminescence Counts (N=2) (hTA1 C13S; M = -6.522): 23.1813 and 24.6658 and 21.4304 and 27.8641 and 32.7195 and 30.988 | EC50 (hTA1 T271N; T271N mutant, Figure 5B, each row one independent experiment (3 replicates), read-out: pEC50 values, Mean (converted)): 553 nM and 1350 nM | Emax values, Mean (hTA1 T271N; T271N mutant, Figure 5B, β-PEA = 100, each row one independent experiment (3 replicates)): 98.6225 | Emax (hTA1 T271N; T271N mutant, Figure 5B, β-PEA = 100, each row one independent experiment (3 replicates), read-out: Emax values, Mean): 106% | EC50 (hTA1 T271N; T271N, n=2, read-out: EC50): 863 nM | Emax (hTA1 T271N; T271N, n=2, read-out: Span ± SEM (Emax normalized to β-PEA)): 103 ± 3.93% | EC50 (hTA1 b2N; read-out: EC50): 151 nM | Emax (hTA1 b2N; read-out: Span ± SEM (Emax normalized to β-PEA)): 99.5 ± 1% | Emax (hTA1): 99% | Emax (hTA1; WT hTA1, β-PEA = 100, average of the two experiments, read-out: Emax values, Avg): 99% | Emax (hTA1; WT hTA1, β-PEA = 100, each line an independent experiment, 3 replicates, read-out: Emax values (Mean)): 98.7% | Emax values, Mean (hTA1; WT hTA1, β-PEA = 100, each line an independent experiment, 3 replicates): 99.2414 | Emax values, Avg (hTA1; WT, average of the experiments, β-PEA = 100): 98.98 | Emax values, Avg (hTA1; WT, average of the two experiments): 98.98 | Emax values, Mean (hTA1; WT, mean of each independent experiment (3 replicates), β-PEA = 100): 98.7253 and 99.2414 | Emax values, Mean (hTA1; WT, single experiments (3 replicates each), β-PEA = 100): 98.7253 and 99.2414 | Dose-response curves for asenapine vs endogenous trace amines (hTA1; M = -5): 87.8798 and 96.6135 and 100.84 and 85.1295 and 110.033 and 96.1011 | Dose-response curves for asenapine vs endogenous trace amines (hTA1; M = -5.522): 78.3008 and 89.6171 and 91.9649 and 78.2527 and 93.1412 and 82.5257 | Dose-response curves for asenapine vs endogenous trace amines (hTA1; M = -6): 74.2157 and 61.4437 and 71.9149 and 59.67 and 72.4888 and 65.1224 | Dose-response curves for asenapine vs endogenous trace amines (hTA1; M = -6.522): 42.6615 and 39.1398 and 48.3901 and 34.5221 and 51.4135 and 39.5962 | Dose-response curves for asenapine vs endogenous trace amines (hTA1; M = -7): 13.8777 and 16.742 and 21.1088 and 17.6752 and 31.7847 and 17.7865 | Dose-response curves for asenapine vs endogenous trace amines (hTA1; M = -7.522): 4.58 and 3.454 and 4.252 and 2.943 and 7.126 and 3.989 | Dose-response curves for asenapine vs endogenous trace amines (hTA1; M = -8): 2.796 and 3.5 and 3.313 and 3.588 and 4.545 and 4.122 | Dose-response curves for asenapine vs endogenous trace amines (hTA1; M = -8.522): 0.3075 and 0.6831 and 1.294 and -0.5515 and 0.6503 and 0.4723 | Dose-response curves for asenapine vs endogenous trace amines (hTA1; M = -9): -0.6786 and 0.2605 and 0.02574 and -1.508 and -0.9298 and -0.774 | Dose-response curves for asenapine vs endogenous trace amines (hTA1; M = -9.522): -0.5847 and -0.9603 and -0.3499 and -2.02 and -0.7963 and -1.241 | Dose-response curves for asenapine vs endogenous trace amines (hTA1; M = -10): -0.1151 and -1.148 and -0.9134 and -1.041 and -0.1064 and -1.063 | Dose-response curves for asenapine vs endogenous trace amines (hTA1; M = -10.522): -0.3029 and -1.148 and -1.43 and -1.798 and -1.019 and -1.397 | Dose-response curves for asenapine vs endogenous trace amines (hTA1; M = -11): -0.209 (3×) and -0.6182 and 0.361 and -0.7518 | Dose-response curves for asenapine vs endogenous trace amines (hTA1; M = -11.522): 0.0727 and -0.06817 and 0.2605 and -0.7073 and 0.1607 and -0.4179 | Dose-response curves for asenapine vs endogenous trace amines (hTA1; M = -12): 0.0727 and 1.247 and 0.777 and -1.086 and -0.774 (2×) | Dose-response curves for asenapine vs endogenous trace amines (hTA1; M = -12.522): 0.4483 and 0.1197 and 0.3544 and -2.02 and -1.575 and -1.33 | EC50 (hTA1; pEC50 values (Mean), WT hTA1, each line an independent experiment, 3 replicates, Figure 2B source data): 414 nM and 416 nM | EC50 (hTA1; pEC50 ± SEM, wt hTA1, HEK293T, n=3): 417 nM | EC50 (hTA1; wt hTA1, HEK293T, n=3, read-out: EC50): 415 nM | EC50 (hTA1 I290Y; I290Y, read-out: EC50): 1960 nM | Emax (hTA1 I290Y; I290Y, read-out: Span ± SEM (Emax normalized to β-PEA)): 99 ± 3.2% | EC50 (hTA1 I290Y; I290Y, single experiments (3 replicates each), read-out: pEC50 values, Mean (converted)): 2120 nM and 1010 nM and 3550 nM | Emax values, Mean (hTA1 I290Y; I290Y, single experiments (3 replicates each), β-PEA = 100): 103.315 and 92.7474 and 100.92 | cAMP accumulation response, normalized (concentration-response source data, single replicate values) (hTA1 I290Y; M = -5): 70.7589 and 112.926 and 76.6069 and 77.3087 and 89.0347 and 68.1478 and 71.4902 and 86.1539 and 63.5944 | cAMP accumulation response, normalized (concentration-response source data, single replicate values) (hTA1 I290Y; M = -5.522): 50.1368 and 56.2927 and 58.1394 and 72.545 (2×) and 68.5142 and 46.6748 and 35.395 and 37.651 | cAMP accumulation response, normalized (concentration-response source data, single replicate values) (hTA1 I290Y; M = -6): 26.4369 and 46.4433 and 36.2862 and 39.5657 and 32.9698 and 41.0314 and 25.2433 and 19.6034 and 27.4992 | cAMP accumulation response, normalized (concentration-response source data, single replicate values) (hTA1 I290Y; M = -6.522): 10.4317 and 18.1265 and 13.2018 and 24.1753 and 16.4801 and 23.4424 and 9.4516 (2×) and 6.068 | cAMP accumulation response, normalized (concentration-response source data, single replicate values) (hTA1 I290Y; M = -7): 2.737 and 6.123 and 3.045 and 3.288 (2×) and 0.7233 and 1.556 and -0.7002 and 0.4278 | cAMP accumulation response, normalized (concentration-response source data, single replicate values) (hTA1 I290Y; M = -7.522): 0.8902 and 0.2746 and -1.88 and -4.407 and -4.773 and -3.674 and -4.0841 and -1.828 and -2.956 | cAMP accumulation response, normalized (concentration-response source data, single replicate values) (hTA1 I290Y; M = -8): -1.264 and 0.8902 and -0.6488 and -2.575 and -3.307 (2×) and -4.0841 (2×) and -5.212 | cAMP accumulation response, normalized (concentration-response source data, single replicate values) (hTA1 I290Y; M = -8.522): -1.264 and -0.0332 and 0.5824 and -4.407 and -3.674 and -2.956 (2×) and -4.0841 | cAMP accumulation response, normalized (concentration-response source data, single replicate values) (hTA1 I290Y; M = -9): -3.7267 and 0.8902 and -1.88 and 1.823 and 4.021 and -3.674 and -1.828 and -2.956 and -4.0841 | cAMP accumulation response, normalized (concentration-response source data, single replicate values) (hTA1 I290Y; M = -9.522): -3.419 and -0.6488 and -1.88 and -6.239 and -4.407 and -2.208 and -2.956 (2×) and -5.212 | cAMP accumulation response, normalized (concentration-response source data, single replicate values) (hTA1 I290Y; M = -10): -1.88 and -0.9566 and -1.572 and -6.605 and -4.407 and -2.956 (2×) and -1.828 | cAMP accumulation response, normalized (concentration-response source data, single replicate values) (hTA1 I290Y; M = -10.522): -1.572 (2×) and 0.5824
